Values of other authors as cited in patent US12165861B2, “Mass spectrometry method for measuring vitamin B6 in body fluid” (Quest Diagnostics Investments Incorporated, priority 2007, dated 2024).

## vitamin B6
100 mg of vitamin B6, under normal conditions
  time to plasma peak: 2 h
100 mg of vitamin B6, under normal conditions, plasma
  half-life: 8 h
Doses of over 25 mg
  change in plasma PLP: little change
